pKi: −log10 of the molar value.
What was measured:
Carbonic anhydrase 1 = Carbonic anhydrase 1 (Homo sapiens, UniProt P00915); assay: Inhibition of human CA I assessed as inhibition constant by stopped-flow CO2 hydrase assay method
Carbonic anhydrase 2 = Carbonic anhydrase 2 (Homo sapiens, UniProt P00918); assay: Inhibition of human CA II assessed as inhibition constant by stopped-flow CO2 hydrase assay method
Carbonic anhydrase 9 = Carbonic anhydrase 9 (Homo sapiens, UniProt Q16790); assay: Inhibition of human CA IX assessed as inhibition constant by stopped-flow CO2 hydrase assay method
Carbonic anhydrase 12 = Carbonic anhydrase 12 (Homo sapiens, UniProt O43570); assay: Inhibition of human CA XII assessed as inhibition constant by stopped-flow CO2 hydrase assay method
Sequence of Carbonic anhydrase 12 (O43570 whole entry): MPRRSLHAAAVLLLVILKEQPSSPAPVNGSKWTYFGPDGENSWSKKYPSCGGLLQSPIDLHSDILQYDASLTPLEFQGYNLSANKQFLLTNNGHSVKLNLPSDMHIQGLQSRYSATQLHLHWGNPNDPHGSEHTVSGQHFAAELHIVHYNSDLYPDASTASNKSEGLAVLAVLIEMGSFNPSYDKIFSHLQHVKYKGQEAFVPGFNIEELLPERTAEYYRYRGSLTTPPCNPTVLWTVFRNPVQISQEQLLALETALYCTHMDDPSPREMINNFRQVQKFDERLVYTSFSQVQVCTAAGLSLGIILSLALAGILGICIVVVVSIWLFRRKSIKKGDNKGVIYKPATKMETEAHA

Sequence of Carbonic anhydrase 1 (P00915 whole entry): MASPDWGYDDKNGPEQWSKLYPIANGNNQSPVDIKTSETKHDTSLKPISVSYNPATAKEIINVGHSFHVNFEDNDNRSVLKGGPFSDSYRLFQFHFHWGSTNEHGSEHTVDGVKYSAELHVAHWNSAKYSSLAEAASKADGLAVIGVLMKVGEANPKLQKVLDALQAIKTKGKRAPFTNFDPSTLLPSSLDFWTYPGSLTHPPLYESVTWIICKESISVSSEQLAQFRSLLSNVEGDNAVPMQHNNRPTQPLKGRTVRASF

SMILES | pKi (Carbonic anhydrase 1) | pKi (Carbonic anhydrase 2) | pKi (Carbonic anhydrase 9) | pKi (Carbonic anhydrase 12)
CC1=NN(c2ccc(Cl)cc2Cl)C(=O)/C1=N/Nc1cccc(S(N)(=O)=O)c1 | 4.27 | 6.33 | 6.80 | 6.56
CC1=NN(c2ccccc2Cl)C(=O)/C1=N/Nc1cccc(S(N)(=O)=O)c1 | 5.04 | 6.54 | 7.15 | 6.91
CC1=NNC(=O)/C1=N/Nc1ccc(S(N)(=O)=O)cc1 | 7.27 | 8.60 | 7.44 | 6.79
CC1=NN(c2ccc(C)cc2)C(=O)/C1=N/Nc1cccc(S(N)(=O)=O)c1 | 6.42 | 6.73 | 7.35 | 7.39
CC1=NN(c2ccccc2)C(=O)/C1=N/Nc1cccc(S(N)(=O)=O)c1 | 5.08 | 8.18 | 7.82 | 7.27
CC1=NN(c2ccc(Cl)cc2Cl)C(=O)/C1=N/Nc1ccc(S(N)(=O)=O)cc1 | 5.28 | 7.14 | 8.07 | 8.17
CC1=NN(c2ccc(C)cc2)C(=O)/C1=N/Nc1ccc(S(N)(=O)=O)cc1 | 6.47 | 8.21 | 7.60 | 7.18
CC1=NN(c2ccccc2Cl)C(=O)/C1=N/Nc1ccc(S(N)(=O)=O)cc1 | 5.13 | 7.11 | 7.51 | 7.13

More lines, in order of rising pKi (Carbonic anhydrase 1), values ahead:

pKi (Carbonic anhydrase 1) | pKi (Carbonic anhydrase 2) | pKi (Carbonic anhydrase 9) | pKi (Carbonic anhydrase 12) | SMILES
5.06 | 7.68 | 8.96 | 7.61 | CC1=NN(c2ccc(Cl)cc2)C(=O)/C1=N/Nc1ccc(S(N)(=O)=O)cc1
5.11 | 6.49 | 7.40 | 7.04 | CC1=NN(c2ccc(Cl)cc2)C(=O)/C1=N/Nc1cccc(S(N)(=O)=O)c1
6.15 | – | 8.06 | 7.31 | CC1=NN(c2ccccc2)C(=O)/C1=N/Nc1ccc(S(N)(=O)=O)cc1
6.30 | 7.23 | 8.49 | 8.04 | CC1=NN(c2ccc(C#N)cc2)C(=O)/C1=N/Nc1ccc(S(N)(=O)=O)cc1
6.31 | 9.30 | 7.22 | 8.41 | CC1=NN(c2ccc(C#N)cc2)C(=O)/C1=N/Nc1cccc(S(N)(=O)=O)c1
6.66 | 6.86 | 7.64 | 7.06 | CC1=NNC(=O)/C1=N/Nc1cccc(S(N)(=O)=O)c1

From ChEMBL document CHEMBL5365480, “Potent and selective carbonic anhydrase inhibition activities of pyrazolones bearing benzenesulfonamides” (Bioorg Med Chem Lett, 2023)
